Legend:
[1] = target: T1, PDGFRβ (Homo sapiens, UniProt P09619); test: PAE-PDGFRβ phosphorylation in PAE-PDGFRB cells assay; type: cell-based; details: PAE cells overexpressing human PDGFRβ, PDGF-BB stimulated; read-out: PAE PDGFR autophos IC50 (nM) AVG
T1 construct: expressed in transfected cells; host or cells: porcine aorta endothelial (PAE)-PDGFRβ cells
Experimental: PAE-PDGFRβ Phosphorylation in PAE-PDGFRB Cells Assay
This assay determines the ability of a test compound to inhibit the autophosphorylation of PDGFRβ in porcine aorta endothelial (PAE)-PDGFRβ cells. PAE cells that overexpress human PDGFRβ were used in this assay. The cells were cultured in Ham's F12 media supplemented with 10% fetal bovine serum (FBS) and 400 ug/ml G418. Twenty thousands cells were seeded in each well of a 96-well plate in 50 μL of growth media and allowed to attach for 6 hours at 37° C. Cells were then exposed to the starvation media (Ham's F12 media supplemented with 0.1% FBS) for 16 hours. After the starvation period was over, 10 μL of test agent in 5% DMSO in starvation media were added to the test wells and 10 μL of the vehicle (5% DMSO in starvation media) were added into the control wells. The final DMSO concentration in each well was 0.5%. Plates were incubated at 37° C. for 1 hour and the cells were then stimulated with 1 μg/mL PDGF-BB (R & D System) in the presence of 2 mM Na3VO4 for 8 minutes. The cells were washed once with 1 mm Na3VO4 in HBSS and lysed by adding 50 μL per well of lysis buffer. One hundred μL of dilution buffer were then added to each well and the diluted cell lysate was transferred to a 96-well goat ant-rabbit coated plate (Pierce), which was pre-coated with Rabbit anti Human PDGFRβ antibody (Santa Cruz). The plates were incubated at room temperature for 2 hours and washed seven times with 1% Tween 20 in PBS. HRP-PY20 (Santa Cruz) was diluted and added to the plate for a 30-minute incubation. Plates were then washed again and TMB peroxidase substrate (Kirkegaard & Perry) was added for a 10-minute incubation. One hundred μL of 0.09 N H2SO4 was added into each well of the 96-well plate to stop the reaction. Phosphorylation status was assessed by spectrophotometer reading at 450 nm. IC50 values were calculated by curve fitting using a four-parameter analysis.

[2] = target: T2, unphosphorylated VEGF-R2Δ50 (FLVK) (Homo sapiens, UniProt P35968, DEL940-989/E990V); test: VEGF-R2 coupled spectrophotometric assay, unphosphorylated VEGF-R2Δ50 (FLVK); type: biochemical; details: unphosphorylated VEGF-R2Δ50; for inhibition at 0.05 µM: 50 nM compound, read-out: FLVK (% inh @ 50 nM)
T2 construct: VEGF-R2Δ50 contains residues 806–939 and 990–1171; made in house; host or cells: baculovirus/insect cell system
T2 sequence (P35968 with tags, fused parts or gaps DEL940-989/E990V limits assumed): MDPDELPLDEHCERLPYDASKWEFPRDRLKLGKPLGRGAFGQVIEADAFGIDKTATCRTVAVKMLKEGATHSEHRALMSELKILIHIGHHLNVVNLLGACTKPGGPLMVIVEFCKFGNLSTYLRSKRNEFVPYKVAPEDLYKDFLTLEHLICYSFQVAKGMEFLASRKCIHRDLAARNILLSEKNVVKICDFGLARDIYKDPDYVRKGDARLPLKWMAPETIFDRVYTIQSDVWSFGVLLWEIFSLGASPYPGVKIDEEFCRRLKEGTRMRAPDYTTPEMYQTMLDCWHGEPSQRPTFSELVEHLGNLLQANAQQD
Outline: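 Ki obtained by Morrison-equation fitting of activity at varied compound levels; reaction started with 5–40 nM enzyme. Non-autophosphorylated kinase construct (insect cell-expressed) with 3 mM ATP, 20 mM poly(E4Y1), 60 mM MgCl2 plus 2 mM MnCl2, pH 7.5 HEPES; NADH loss at 340 nm via PK/LDH coupling.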

[3] = system: Huvec; test: bFGF Huvec proliferation; type: cell-based, human; details: Homo sapiens, HUVEC
[4] = system: human umbilical vein endothelial cells (HUVEC); test: HUVEC+VEGF proliferation assay; type: cell-based; details: Homo sapiens, HUVEC; VEGF 6 ng/mL, 72 h, MTT
Experimental: HUVEC+VEGF Proliferation Assay
This assay determines the ability of a test compound to inhibit the growth factor-stimulated proliferation of human umbilical vein endothelial cells (“HUVEC”). HUVEC cells (passage 3–4; Clonetics, Corp.) were thawed into EGM2 culture medium (Clonetics Corp) in T75 flasks. Fresh EGM2 medium was added to the flasks 24 hours later. Four or five days later, cells were exposed to another culture medium (F12K medium supplemented with 10% fetal bovine serum (FBS), 60 μg/mL endothelial cell growth supplement (ECGS), and 0.1 mg/mL heparin). Exponentially-growing HUVEC cells were used in experiments thereafter. Ten to twelve thousand HUVEC cells were plated in 96-well dishes in 100 μl of rich, culture medium (described above). The cells were allowed to attach for 24 hours in this medium. The medium was then removed by aspiration and 105 μl of starvation media (F12K+1% FBS) was added to each well. After 24 hours, 15 μl of test agent dissolved in 1% DMSO in starvation medium or this vehicle alone was added into each treatment well; the final DMSO concentration was 0.1%. One hour later, 30 μl of VEGF (30 ng/mL) in starvation media was added to all wells except those containing untreated controls; the final VEGF concentration was 6 ng/mL. Cellular proliferation was quantified 72 hours later by MTT dye reduction, at which time cells were exposed for 4 hours MTT (Promega Corp.). Dye reduction was stopped by addition of a stop solution (Promega Corp.) and absorbance at 595 nm was determined on a 96-well spectrophotometer plate reader.

T1 sequence (P09619 33-1106): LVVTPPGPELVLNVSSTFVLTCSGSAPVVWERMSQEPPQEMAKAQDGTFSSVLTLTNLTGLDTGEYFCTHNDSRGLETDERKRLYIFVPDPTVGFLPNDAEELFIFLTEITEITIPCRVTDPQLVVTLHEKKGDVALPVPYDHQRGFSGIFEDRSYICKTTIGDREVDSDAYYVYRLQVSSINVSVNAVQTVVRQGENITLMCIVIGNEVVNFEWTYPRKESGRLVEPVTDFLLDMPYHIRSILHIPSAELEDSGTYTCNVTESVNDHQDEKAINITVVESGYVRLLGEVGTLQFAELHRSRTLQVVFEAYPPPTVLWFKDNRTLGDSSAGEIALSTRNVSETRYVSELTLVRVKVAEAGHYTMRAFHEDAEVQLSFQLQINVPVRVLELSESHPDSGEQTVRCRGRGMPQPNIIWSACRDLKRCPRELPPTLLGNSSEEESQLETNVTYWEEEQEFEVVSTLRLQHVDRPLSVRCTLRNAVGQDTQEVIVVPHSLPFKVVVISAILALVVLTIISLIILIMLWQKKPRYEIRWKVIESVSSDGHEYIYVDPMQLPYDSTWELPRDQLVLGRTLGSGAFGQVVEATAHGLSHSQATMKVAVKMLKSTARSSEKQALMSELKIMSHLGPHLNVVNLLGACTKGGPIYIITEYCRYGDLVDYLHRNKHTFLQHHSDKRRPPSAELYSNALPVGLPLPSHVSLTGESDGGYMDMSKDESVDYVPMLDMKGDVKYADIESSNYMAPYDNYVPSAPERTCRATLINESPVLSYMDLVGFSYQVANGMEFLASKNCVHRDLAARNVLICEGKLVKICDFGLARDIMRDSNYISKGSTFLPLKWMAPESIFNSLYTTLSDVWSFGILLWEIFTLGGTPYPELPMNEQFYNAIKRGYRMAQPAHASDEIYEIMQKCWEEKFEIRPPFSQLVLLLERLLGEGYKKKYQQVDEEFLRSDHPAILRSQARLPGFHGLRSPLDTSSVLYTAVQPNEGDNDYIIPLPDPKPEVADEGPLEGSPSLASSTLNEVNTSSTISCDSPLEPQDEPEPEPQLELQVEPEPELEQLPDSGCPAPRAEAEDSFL

COC[C@@H]1CCCN1C(=O)c1cc2nccc(Oc3ccc4c(C(=O)NC5CC5)c(C)sc4c3)c2s1 [Example 120, 6-[(2-{[(2S)-2-(Methoxymethyl)pyrrolidin-1-yl]carbonyl}thieno[3,2-b]pyridin-7-yl)oxy]-2-methylbenzo[b]thiophene-3-carboxylic acid cyclopropylamide] gave an IC50 [1] of 405 nM, an inhibition at 0.05 µM [2] of 93% and a Ki [2] of 0.6 nM. The IC50 [3] was 489 nM and the IC50 [4] was 0.491 nM.
Compound CO[C@@H]1CCN(C(=O)c2cc3nccc(Oc4ccc5c(C(=O)NCCN6CCOCC6)c(C)oc5c4)c3s2)C1 [Example 90, 6-[2-(3-Methoxy-pyrrolidine-1-carbonyl)-thieno[3,2-b]pyridin-7-yloxy]-2-methyl-benzofuran-3-carboxylic acid (2-morpholin-4-yl-ethyl)-amide] has an IC50 [1] of 33 nM, an inhibition at 0.05 µM [2] of 93% and a Ki [2] of 0.739 nM. For the same compound, the IC50 [3] was 745 nM and the IC50 [4] was 2.14 nM.
Cc1oc2cc(Oc3ccnc4cc(C(=O)N5CC[C@@H](O)C5)sc34)ccc2c1C(=O)NCC(C)C [Example 88, 2-Methyl-6[2-(3-hydroxy-pyrrolidine-1-carbonyl)-thieno[3,2-b]pyridin-7-yloxy]-benzofuran-3-carboxylic acid isobutyl amide] gave an IC50 [1] of 15.1 nM, an inhibition at 0.05 µM [2] of 94% and a Ki [2] of 0.574 nM. The IC50 [3] was 363 nM and the IC50 [4] was 0.46 nM.
For CO[C@@H]1CCN(C(=O)c2cc3nccc(Oc4ccc5c(C(=O)NCC6CC6)c(C)sc5c4)c3s2)C1 [Example 125, 6-[(2-{[(3R)-3-Methoxypyrrolidin-1-yl]carbonyl}thieno[3,2-b]pyridin-7-yl)oxy]-2-methylbenzo[b]thiophene-3-carboxylic acid (cyclopropylmethyl)amide], the IC50 [1] was 179 nM, the inhibition at 0.05 µM [2] was 95% and the Ki [2] was 0.219 nM. The IC50 [3] was 969 nM and the IC50 [4] was 2 nM.
CCCNC(=O)c1c(C)n(C)c2cc(Oc3ccnc4cc(-c5nccs5)sc34)ccc12 [Example 60, 1,2-Dimethyl-6-(2-thiazol-2-yl-thieno[3,2-b]pyridin-7-yloxy)1H-indole-3-carboxylic acid propylamide] was tested, and the IC50 [1] was 38.3 nM, the inhibition at 0.05 µM [2] was 81% and the Ki [2] was 2.17 nM. It also gave an IC50 [3] of 1700 nM and an IC50 [4] of 1.34 nM.
CCc1sc2cc(Oc3ccnc4cc(C(=O)N5CC[C@@H](OC)C5)sc34)ccc2c1C(=O)NC [Example 135, 2-Ethyl-6-[(2-{[(3R)-3-methoxypyrrolidin-1-yl]carbonyl}thieno[3,2-b]pyridin-7-yl)oxy]benzo[b]thiophene-3-carboxylic acid methylamide] showed an IC50 [1] of 212 nM, an inhibition at 0.05 µM [2] of 87% and a Ki [2] of 1.54 nM. It also gave an IC50 [3] of 559 nM and an IC50 [4] of 1.02 nM.
In the case of CNC(=O)c1c(C)n(C)c2cc(Oc3ccnc4cc(C(=O)N5CCC5)sc34)ccc12 [Example 25], the IC50 [1] is reported as 12 nM, the inhibition at 0.05 µM [2] is reported as 70% and the Ki [2] is reported as 4.08 nM. The IC50 [3] was 7460 nM and the IC50 [4] was 0.45 nM.
Compound Cc1c(C(=O)NCCCO)c2ccc(Oc3ccnc4cc(C(=O)N5CCCC5)sc34)cc2n1C [Example 65, 1,2-Dimethyl-6-[2-(pyrrolidine-1-carbonyl)-thieno[3,2-b]pyridin-7-yloxy]-1H-indole-3-carboxylic acid (3-hydroxy-propyl)-amide] has an IC50 [1] of 59 nM, an inhibition at 0.05 µM [2] of 65% and a Ki [2] of 7.97 nM. For the same compound, the IC50 [3] was 10000 nM and the IC50 [4] was 10 nM.
Work on Cc1c(C(=O)NCCCO)c2ccc(Oc3ccnc4cc(C(=O)N5CC[C@@H](O)C5)sc34)cc2n1C [Example 64, 6-[2-((R)-3-Hydroxy-pyrrolidine-1-carbonyl)-thieno[3,2-b]pyridin-7-yloxy]-1,2-dimethyl-1H-indole-3-carboxylic acid (3-hydroxy-propyl)-amide] yielded an inhibition at 0.05 µM [2] of 64%, a Ki [2] of 11.8 nM and an IC50 [3] of 10000 nM. For the same compound, the IC50 [4] was 10 nM.
In the case of CNC(=O)c1c(C)n(C)c2cc(Oc3ccnc4cc(C(=O)N5CCC[C@H]5CO)sc34)ccc12 [Example 16, 6-[2-(2-Hydroxymethyl-pyrrolidine-1-carbonyl)-thieno[3,2-b]pyridin-7-yloxy]-1,2-dimethyl-1H-indole-3-carboxylic acid methylamide], the inhibition at 0.05 µM [2] is reported as 46%, the Ki [2] is reported as 8.14 nM and the IC50 [3] is reported as 1000 nM. It also gave an IC50 [4] of 10 nM.
In the case of Cc1sc2cc(Oc3ccnc4cc(-c5nccn5C)sc34)ccc2c1C(=O)NCCCO [Example 118, 2-Methyl-6-{[2-(1-methyl-1H-imidazol-2-yl)thieno[3,2-b]pyridin-7-yl]oxy}benzo[b]thiophene-3-carboxylic acid 3-hydroxypropylamide], the inhibition at 0.05 µM [2] is reported as 84%, the Ki [2] is reported as 1.2 nM and the IC50 [3] is reported as 736 nM. It also gave an IC50 [4] of 0.9 nM.
For CO[C@@H]1CCN(C(=O)c2cc3nccc(Oc4ccc5c(C(=O)NC6CC6)c(C)oc5c4)c3s2)C1 [Example 89, 6-[2-(3-Methoxypyrrolidine-1-carbonyl)-thieno[3,2-b]pyridin-7-yloxy]-2-methyl-benzofuran-3-carboxylic acid cyclopropylamide], the IC50 [1] was 250 nM, the inhibition at 0.05 µM [2] was 95% and the Ki [2] was 0.419 nM. It also gave an IC50 [3] of 5.2 nM.
With Cc1oc2cc(Oc3ccnc4ccsc34)ccc2c1C(=O)Nc1nnc(-c2ccccc2)s1 [Example 106, 2-Methyl-6-(thieno[3,2-b]pyridin-7-yloxy)-benzofuran-3-carboxylic acid (5-phenyl-[1,3,4]thiadiazol-2-yl)-amide] the inhibition at 0.05 µM [2] was 98%, the IC50 [3] was 638 nM and the IC50 [4] was 10 nM.
Compound CCc1sc2cc(Oc3ccnc4cc(C(=O)N5CCC5)sc34)ccc2c1C(=O)NC [Example 138, 6-{[2-(Azetidin-1-ylcarbonyl)thieno[3,2-b]pyridin-7-yl]oxy}-2-ethylbenzo[b]thiophene-3-carboxylic acid methylamide] has an IC50 [1] of 110 nM, an inhibition at 0.05 µM [2] of 85% and a Ki [2] of 0.78 nM. The IC50 [4] was 9.9 nM.
CCc1oc2cc(Oc3ccnc4cc(C(=O)N5CC[C@@H](OC)C5)sc34)ccc2c1C(=O)NC [Example 14, 6-(2-[3-methoxypyrrolidine-1-carbonyl]thieno[3,2-b]pyridin-7-yloxy)-2-ethylbenzofuran-3-carboxylic acid methylamide] was tested, and the inhibition at 0.05 µM [2] was 81%, the Ki [2] was 1.46 nM and the IC50 [3] was 287 nM. It also gave an IC50 [4] of 9.4 nM.
In the case of CCc1sc2cc(Oc3ccnc4cc(C(=O)N5CC[C@@H](O)C5)sc34)ccc2c1C(=O)NC [Example 136, 2-Ethyl-6-[(2-{[(3R)-3-hydroxypyrrolidin-1-yl]carbonyl}thieno[3,2-b]pyridin-7-yl)oxy]benzo[b]thiophene-3-carboxylic acid methylamide], the IC50 [1] is reported as 609 nM, the inhibition at 0.05 µM [2] is reported as 88% and the Ki [2] is reported as 1.17 nM. For the same compound, the IC50 [4] was 10 nM.
CNC(=O)c1c(C)[nH]c2cc(Oc3ccnc4cc(C(=O)N5CC[C@@H](O)C5)sc34)ccc12 [Example 24, 6-[2-(3-Hydroxy-pyrrolidine-1-carbonyl)-thieno[3,2-b]pyridin-7-yloxy]-2-methyl-1H-indole-3-carboxylic acid methylamide] was tested, and the inhibition at 0.05 µM [2] was 69%, the Ki [2] was 4.2 nM and the IC50 [3] was 10000 nM. For the same compound, the IC50 [4] was 32 nM.
